Experimental data taken from patent US4824853A, “α,α-diaryl-4-aryl-4-hydroxy-1-piperidinebutanamide, N-oxides and method of treating diarrhea” (Janssen Pharmaceutica N.V., priority 1986, dated 1989).

Columns and labels:
[1] = Determination of toxicity; design: species or system Female Wistar rats; settings: rat, in vivo; dose lethal in 50% of tested animals; route not stated
Description: Female Wistar rats were treated with the compound to be tested at various dose levels. LD50 values were determined as that dose in mg/kg body weight being lethal in 50% of the tested animals. Said LD50 values obtained for a compound of the present invention and for 4-(4-chlorophenyl)-4-hydroxy-N,N-dimethyl-α,α-diphenyl-1-piperidinebutanamide (i.e. loperamide) are also listed in table I. From these value it can be concluded that the compounds of the present invention show a decreased toxicity.

tail withdrawal response = experiment: Tail Withdrawal Test in Rats; type: in vivo, Female Wistar rats; settings: intravenous; for ED50: Rattus norvegicus, 55° C. water, response suppressed >10 seconds in 50% of animals, indicator of central effects
Description: Female Wistar rats were fasted overnight. Each animal was treated intravenously with the desired dose of the compound to be tested. The thus treated rats were put into individual restraining cages. After the administration of the test compound, the lower 5 cm portion of the tail was immersed into a cup filled with water at a constant temperature of 55° C. The typical tail withdrawal response was evaluated during a 10 seconds period after the immersion. ED50 values in mg/kg body weight were determined at that dose of the test compound capable of suppressing in 50% of the tested animals the typical tail withdrawal response during a time period exceeding 10 seconds.

diarrhea [2] = experiment: Castor Oil Test in Rats; type: in vivo, Female Wistar rats; settings: Rattus norvegicus; intravenous, 1 h before 1 ml castor oil orally; diarrhea absent in 50% of animals 2 hours after castor oil
Description: Female Wistar rats were fasted overnight. Each animal was treated intravenously with the desired dose of the compound to be tested. One hour thereafter, the animal received 1 ml of castor oil orally. Each animal was kept in an individual cage and 2 hours after the castor oil treatment, the presence or absence of diarrhea was noted. The ED50 value was determined as that dose in mg/kg body weight, at which no diarrhea was present in 50% of the tested animals. Said ED50 -value for a compound of the present invention and for 4-(4-chlorophenyl)-4-hydroxy-N,N-dimethyl-α,α-diphenyl-1-piperidinebutanamide, which compound is generically designated as loperamide and which is described in U.S. Pat. No. 3,714,159, can be found in table I.

diarrhea [3] = experiment: Determination of the antidiarrheal specificity (Tail Withdrawal ED50 / Castor Oil ED50); type: in vivo, Female Wistar rats; settings: ratio ED50 Tail Withdrawal Test / ED50 Castor Oil Test
Description: (§1) The safety margin for the antidiarrheal action was determined as the ratio of the LD50 value to the ED50 value obtained in the Castor Oil Test. The antidiarrheal specificity was determined as the ratio of the ED50 value obtained in the Tail Withdrawal Test to the ED50 value obtained in the Castor Oil Test.

[4] = Determination of the safety margin for the antidiarrheal action (LD50 / Castor Oil ED50); design: species or system Female Wistar rats; settings: rat, in vivo; ratio LD50 / ED50 Castor Oil Test
Description: as §1

| SMILES | LD50 [1] | ED50 (tail withdrawal response) | typical tail withdrawal reflex antagonism (in words) (tail withdrawal response) | ED50 (diarrhea [2]) | Antidiarrheal specificity (diarrhea [3]) | selectivity ratio [4] |
| --- | --- | --- | --- | --- | --- | --- |
| CN(C)C(=O)C(CC[N+]1([O-])CCC(O)(c2ccc(Cl)cc2)CC1)(c1ccccc1)c1ccccc1 (stereo not drawn) [Compound 1, trans-4-(4-chlorophenyl)-4-hydroxy-N,N-dimethyl-α,α-diphenyl-1-piperidinebutanamide, N-oxide] | 28.3 mg/kg | > 20 mg/kg | does not show such activity | 0.21 mg/kg | > 95 | 135 |
| CN(C)C(=O)C(CCN1CCC(O)(c2ccc(Cl)cc2)CC1)(c1ccccc1)c1ccccc1 [loperamide, 4-(4-chlorophenyl)-4-hydroxy-N,N-dimethyl-α,α-diphenyl-1-piperidinebutanamide] | 5.92 mg/kg | 2.83 mg/kg | antagonizes the typical tail withdrawal reflex | 0.095 mg/kg | 29.8 | 62.3 |
